In one series the test system is C. lusitaniae. In words: Spot on lawn assay. Further details: key: +, clear halo of growth inhibition; ++: multiple +, increased activity as assessed visually by the increased diameter of the inhibition zone; +++: multiple +, increased activity as assessed visually by the increased diameter of the inhibition zone; ++++: multiple +, increased activity as assessed visually by the increased diameter of the inhibition zone; +++++: multiple +, increased activity as assessed visually by the increased diameter of the inhibition zone; -, no inhibition. The settings on record: indicator C. lusitaniae. It counts as cell-based, Candida lusitaniae. Here is the method:
(§1) Antimicrobial activity of isolate MMA7 against the indicator strains was initially assessed with a deferred antagonism assay as described by Phelan et al. (2012). Subsequent testing of supernatants, crude extracts and purified compounds was carried out with a well and/or a spot on lawn assays. Essentially, 5 µl of samples were spotted onto 20 ml agar plates seeded with the indicator strain to a final OD600 of 0.015, or 30 µl aliquots were applied to a 5 mm well made on identical plates.

The next series deals with V. anguillarum. Nature of the series: Spot on lawn assay. Type of series: cell-based, Listonella (Vibrio) anguillarum LMG 4410. Also noted: key to Antimicrobial activity, spot on lawn assay: +, clear halo of growth inhibition; ++: multiple +, increased activity as assessed visually by the increased diameter of the inhibition zone; +++: multiple +, increased activity as assessed visually by the increased diameter of the inhibition zone; ++++: multiple +, increased activity as assessed visually by the increased diameter of the inhibition zone; +++++: multiple +, increased activity as assessed visually by the increased diameter of the inhibition zone; -, no inhibition. Here is the method: as §1

In series [1] the test system is protease mixture from Streptomyces griseus. In words: Susceptibility to proteolytic enzymes, bioactivity by spot on lawn assay. The settings on record: Streptomyces griseus protease 1 mg ml^-1, 37 °C, 1 h; indicator L. monocytogenes.
The subject of a further series is B. cereus. Nature of the series: Spot on lawn assay. Type of series: cell-based, Bacillus cereus NCIMB 9373. Further details: key: +, clear halo of growth inhibition; ++: multiple +, increased activity as assessed visually by the increased diameter of the inhibition zone; +++: multiple +, increased activity as assessed visually by the increased diameter of the inhibition zone; ++++: multiple +, increased activity as assessed visually by the increased diameter of the inhibition zone; +++++: multiple +, increased activity as assessed visually by the increased diameter of the inhibition zone; -, no inhibition. The settings on record: indicator B. cereus. The method, then:
as §1

For the next series, the system named is S. aureus. In words: Spot on lawn assay. Further details: key: +, clear halo of growth inhibition; ++: multiple +, increased activity as assessed visually by the increased diameter of the inhibition zone; +++: multiple +, increased activity as assessed visually by the increased diameter of the inhibition zone; ++++: multiple +, increased activity as assessed visually by the increased diameter of the inhibition zone; +++++: multiple +, increased activity as assessed visually by the increased diameter of the inhibition zone; -, no inhibition. The note with it: indicator S. aureus. Type of series: cell-based, Staphylococcus aureus NCDO 949. Here is the method:
as §1

The subject of the next series is C. dubliniensis. Nature of the series: Spot on lawn assay. The settings on record: indicator C. dubliniensis. Also noted: key: +, clear halo of growth inhibition; ++: multiple +, increased activity as assessed visually by the increased diameter of the inhibition zone; +++: multiple +, increased activity as assessed visually by the increased diameter of the inhibition zone; ++++: multiple +, increased activity as assessed visually by the increased diameter of the inhibition zone; +++++: multiple +, increased activity as assessed visually by the increased diameter of the inhibition zone; -, no inhibition. It counts as cell-based, Candida dubliniensis. The method, then:
as §1

Another series has as its system C. perfringens. Type of series: cell-based, Clostridium perfringens NCDO 1799. Further details: key: +, clear halo of growth inhibition; ++: multiple +, increased activity as assessed visually by the increased diameter of the inhibition zone; +++: multiple +, increased activity as assessed visually by the increased diameter of the inhibition zone; ++++: multiple +, increased activity as assessed visually by the increased diameter of the inhibition zone; +++++: multiple +, increased activity as assessed visually by the increased diameter of the inhibition zone; -, no inhibition. The settings on record: indicator C. perfringens.

The subject of another series is L. innocua. Nature of the series: Spot on lawn assay. It counts as cell-based, Listeria innocua DPC 3567. Further details: key: +, clear halo of growth inhibition; ++: multiple +, increased activity as assessed visually by the increased diameter of the inhibition zone; +++: multiple +, increased activity as assessed visually by the increased diameter of the inhibition zone; ++++: multiple +, increased activity as assessed visually by the increased diameter of the inhibition zone; +++++: multiple +, increased activity as assessed visually by the increased diameter of the inhibition zone; -, no inhibition. The note with it: indicator L. innocua. The method, then:
as §1

The next series deals with L. monocytogenes. In words: Thermal stability, bioactivity by spot on lawn assay.
In the next series the test system is L. lactis HP. In words: Spot on lawn assay. It counts as cell-based, Lactococcus lactis HP. Also noted: key: +, clear halo of growth inhibition; ++: multiple +, increased activity as assessed visually by the increased diameter of the inhibition zone; +++: multiple +, increased activity as assessed visually by the increased diameter of the inhibition zone; ++++: multiple +, increased activity as assessed visually by the increased diameter of the inhibition zone; +++++: multiple +, increased activity as assessed visually by the increased diameter of the inhibition zone; -, no inhibition. The note with it: indicator L. lactis HP. The method, then:
as §1

The subject of another series is C. difficile. Nature of the series: Spot on lawn assay. Further details: key: +, clear halo of growth inhibition; ++: multiple +, increased activity as assessed visually by the increased diameter of the inhibition zone; +++: multiple +, increased activity as assessed visually by the increased diameter of the inhibition zone; ++++: multiple +, increased activity as assessed visually by the increased diameter of the inhibition zone; +++++: multiple +, increased activity as assessed visually by the increased diameter of the inhibition zone; -, no inhibition. Type of series: cell-based, Clostridium difficile 001. The settings on record: indicator C. difficile. Here is the method:
as §1

For a further series, the system named is E. faecium. In words: Spot on lawn assay. It counts as cell-based, Euterococcous faecium NCIMB 11508. Further details: key: +, clear halo of growth inhibition; ++: multiple +, increased activity as assessed visually by the increased diameter of the inhibition zone; +++: multiple +, increased activity as assessed visually by the increased diameter of the inhibition zone; ++++: multiple +, increased activity as assessed visually by the increased diameter of the inhibition zone; +++++: multiple +, increased activity as assessed visually by the increased diameter of the inhibition zone; -, no inhibition. The settings on record: indicator E. faecium. The method, then: as §1

As for `C=C1NC(=O)[C@@H]2CSC[C@@H](NC(=O)[C@@H]3CS[C@@H](C)[C@H]4NC(=O)[C@H](Cc5ccccc5)NC(=O)[C@H](NC(=O)[C@H](CCCNC(=N)N)NC(=O)[C@@H]5CSC[C@@H](NC(=O)[C@H](CCC(N)=O)NC(=O)[C@@H](NC(=O)[C@@H](NC(=O)/C(=C/C)NC(=O)[C@H](CCCCN)NC(=O)CNC(=O)[C@@H](NC(=O)/C(=C/C)NC(=O)[C@H](C)NC(=O)[C@H](Cc6c[nH]c7ccccc67)NC(=O)C(=O)CC)[C@@H](C)CC)[C@@H](C)CC)C(C)C)C(=O)N[C@@H](C(C)C)C(=O)N[C@@H](CCCCN)C(=O)N[C@@H](CCCCN)C(=O)N5)[C@H](C)SC[C@H](NC4=O)C(=O)NCC(=O)N3)C(=O)N[C@@H](CC(C)C)C(=O)NCC(=O)N[C@H](CSC[C@@H](C(=O)N[C@@H](CC(N)=O)C(=O)O)NC(=O)[C@H](CC(N)=O)NC1=O)C(=O)N2` [Subtilomycin], the “Antimicrobial activity, spot on lawn assay” value in the series on C. lusitaniae is on record as “-”; in the series on V. anguillarum (indicator V. anguillarum, *activity only detected with 4 to 5 times more peptide than that used for the other indicators) it was “+*”; in the series with B. cereus, “++”; in the series on S. aureus, “+”; in the series with C. dubliniensis, “-”; with C. perfringens it was “-”. In addition, the “Antimicrobial activity, spot on lawn assay” value in the series with L. innocua is “++”; with L. lactis HP it was “+”; with C. difficile it was “-”; in the series with E. faecium, “-”. The “Amount of peptide needed for detectable activity relative to that required to inhibit the Gram-positive indicators” value in the series with V. anguillarum (V. anguillarum) is reported as “four to five fold more peptide”. In series [1], the “Antimicrobial activity after proteolytic treatment” value is reported as “complete loss of activity”. The “Activity after heat treatment” value is “no activity” in the series with L. monocytogenes (100 °C for 1 hr, L. monocytogenes) and “stable” in the series with L. monocytogenes (wide range of temperatures, including 100 °C for 30 minutes).

Source of the values: patent publication EP2787003A1, “Antimicrobial peptide produced by marine sponge-derived Bacillus subtilis” (priority 2013, dated 2014).
